Patent US20210017607A1, “Methods of Predicting Responsiveness to Cancer Therapies” (The University of Chicago, priority 2019, published 2021)

Columns and labels:
[1] = tested on: PTEN/p53-deficient GEMM tumors; test: PTEN/p53-deficient GEMM in vivo immune profiling; design: species or system mouse; conditions: for CD4 and CD8 T-cell infiltration / Gr-MDSC and Tregs: copanlisib 14 mg/kg/day every alternate day, 4 weeks
Procedure: FIGS. 48A and 48B. […] PTEN/p53-deficient GEMM mice with established tumors were treated with DMXAA every other day for 14 days. Tumors were harvested and subjected to flow cytometry for detection of the indicated markers. (48A) CD8 infiltration; (48B) M1/M2 ratio of F4/80^+ cells where M1 are defined as MHC-II^+ and M2 cells are MHC-II^−. The frequency of Gr-MDSCs (Ly6C^−Ly6G^+) and surface expression of V-domain Ig suppressor of T cell activation (VISTA) and PD-L1 on Gr-MDSCs are shown.
FIGS. 71A and 71B. […] PTEN/p53-deficient GEMM mice (n=2/group) with established tumors were treated with copanlisib (14 mg/kg/day, every alternate day) for 4 weeks. Tumors were collected and analyzed for changes in global immune infiltrates, shown clockwise from twelve o'clock: CD4+, CD8+, CD19+, F4/80+, CD11c+, Mo-MDSC, Gr-MDSC, neutrophils (71A) and Treg frequency (71B) by flow cytometry. n=2 mice per arm.
Flow Cytometry. Murine tumors: Murine tumors were processed into single cell suspensions via gentle mechanical dissociation in 6 well plates containing 1 mL of 10% RPMI media supplemented with 10% fetal bovine serum, 1% penicillin-streptomycin and 2% L-glutamine. Cell suspensions were centrifuged at 500×g for 5 minutes at 4° C. and were passed through a 70-micron mesh, prior to re-suspension in FACS buffer (1×PBS containing 0.5% FBS and 0.01% sodium azide). For the stain, one million cells resuspended in 1×FACS buffer, were incubated with titrated concentrations of anti-mouse antibodies (Biolegend®), namely, CD45, CD11b, CD11c, CD19, F480,Ly6G, Ly6C, PD-L1, VISTA, I-A^e/IA^b, H-2K^b, CD3, CD4, CD8, 4-1BB, ICOS, and PD-1. Incubation with antibodies was done at 4° C. for 30-40 minutes. Following staining, cells were washed twice with 1× FACS buffer and fixed with 300 microliters of 4% paraformaldehye (Fisher Scientific®). Intracellular stains were done following fixation and permeabilization by staining with anti-mouse FOXP3 (Biolegend®) as per manufacturer's protocol. Analysis of cellular stains were done using BD instrument LSR 4-15 Fortessa™. Data files collected using BDFACSDIVA software were analyzed using FlowJo® software (Tree Star).

[2] = tested on: B6-Myc (STING^hi) tumors; test: B6-Myc syngeneic tumor growth; format: in vivo, mouse; conditions: immunocompetent syngeneic mice
From the text: Tumor volume curves for duration of treatment are shown. […] Data are represented relative to CD45+ immune cells.
Tumor volume curves for duration of treatment are shown.

[3] = tested on: Myc-CAP (STING^lo) cells; test: Annexin V-PI viability assay; format: cell-based, mouse; conditions: rucaparib 500 nM, buparlisib 1 μM, singly and in combination
From the text: FIGS. 29A-29M. PARPi alone induces DNA DSBs, but not apoptosis even in combination with PI3Ki in Myc-CAP (STING^lo) cancer cells; PARPi/PI3Ki combination induces intracellular DNA DSBs and proportionate release of MV surface-associated DNA DSBs from B6-Myc (STINGhi) cancer cells without affecting cellular viability; PARPi/PI3K treatment activates tumor-cell extrinsic cGAS/STING pathway within TAMs in vivo via MV surface-associated DNA DSBs released from tumor cells. Myc-CAP cancer cells were treated with the indicated drugs singly or in combination for 36 hours. (29A) Cells were stained with anti-mouse specific p-γH2AX antibody and a fluorescently labeled secondary antibody for determination of DNA DSBs, which were quantified by confocal microscopy. (29B) Protein extracts from cells in 29A were analyzed for the indicated pharmacodynamic biomarkers by western blotting; (29C) Annexin V-PI staining was done to assess frequency of live cells (Annexin V^− PI^−) following drug treatment. (29D) Ultracentrifugation was utilized to purify microvesicles (MVs) from supernatants in treatment groups in (29A) and associated DNA DSBs was quantified by Nanodrop®. Independent experiments n=2. (29E) Ultracentrifugation was utilized to purify MVs from supernatants in indicated treatment groups in FIG. 17A, and associated DNA DSBs were quantified by Nanodrop®; n=2 independent experiments. […]

[4] = DMXAA every other day for 14 days

Cc1ccc2c(=O)c3cccc(CC(=O)O)c3oc2c1C [DMXAA, 5,6-Dimethylxanthenone-4-acetic Acid]
CD8 T cell infiltration [1, 4]: increases CD8 T cell infiltration
myeloid immunosuppression [1, 4]: relieves myeloid immunosuppression
MDSC infiltration ([1]; DMXAA, PTEN/p53 GEMM mice): decreased MDSC infiltration
VISTA and PD-L1 checkpoint expression on MDSCs ([1]; DMXAA, PTEN/p53 GEMM mice): reduction
myeloid reprogramming and Type I interferon production within the TME ([1]; Myc-CAP-PTEN knockout and PTEN/p53-deficient GEMM tumors): myeloid reprogramming and Type I interferon production
TIL exhaustion markers ([1]; after DMXAA): decreased 4-1BB, decreased ICOS and increased PD-1
tumor growth response [2]: phenocopied

Nc1cc(C(F)(F)F)c(-c2cc(N3CCOCC3)nc(N3CCOCC3)n2)cn1 [buparlisib]
viability of cells [3]: no change in the viability

COc1c(OCCCN2CCOCC2)ccc2c1N=C(NC(=O)c1cnc(N)nc1)N1CCN=C21 [copanlisib]
CD4 and CD8 T-cell infiltration [1]: striking increase
Gr-MDSC and Tregs [1]: depletion
CD4 and CD8 T-cell infiltration ([1]; listed as Copanlisib): increases CD4 and CD8 T-cell infiltration
Gr-MDSC and Tregs ([1]; listed as Copanlisib): decreases Gr-MDSC and Tregs

CNCc1ccc(-c2[nH]c3cc(F)cc4c3c2CCNC4=O)cc1 [rucaparib]
viability of cells [3]: no change in the viability
tumor growth response [2]: de novo resistance
